Measured values reported in the supplement of paper PMC11451515.

System: P12-Ichikawa
Test: cell viability relative to DMSO control; higher = less cytotoxic
Conditions: 48 h
In short: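 NOMO1 or SEM cells were plated at 500 cells/well and P12-Ichikawa cells at 1000 cells/well in 1536-well plates (5 μl), after each leukemia line had been adapted for at least four passages in each medium. Pin dosing delivered library compounds in DMSO at 11 threefold concentrations, 47 μM to 0.79 nM. CellTiter-Glo One luminescence was read after 48 h at 37°C. Viability is reported as a per-plate percentage of DMSO wells, with cell-free wells as background.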

[1] = HPLM + 10% dialyzed FBS, 0.000781 µM
[2] = HPLM + 10% dialyzed FBS, 0.00234 µM
[3] = HPLM + 10% dialyzed FBS, 0.00702 µM
[4] = HPLM + 10% dialyzed FBS, 0.0211 µM
[5] = HPLM + 10% dialyzed FBS, 0.0632 µM
[6] = HPLM + 10% dialyzed FBS, 0.19 µM
[7] = HPLM + 10% dialyzed FBS, 0.569 µM
[8] = HPLM + 10% dialyzed FBS, 1.71 µM
[9] = HPLM + 10% dialyzed FBS, 5.12 µM
[10] = HPLM + 10% dialyzed FBS, 15.4 µM
[11] = HPLM + 10% dialyzed FBS, 46.1 µM
[12] = RPMI 5 mM glucose + 10% FBS, 0.000781 µM
[13] = RPMI 5 mM glucose + 10% FBS, 0.00234 µM
[14] = RPMI 5 mM glucose + 10% FBS, 0.00702 µM
[15] = RPMI 5 mM glucose + 10% FBS, 0.0211 µM
[16] = RPMI 5 mM glucose + 10% FBS, 0.0632 µM
[17] = RPMI 5 mM glucose + 10% FBS, 0.19 µM
[18] = RPMI 5 mM glucose + 10% FBS, 0.569 µM
[19] = RPMI 5 mM glucose + 10% FBS, 1.71 µM
[20] = RPMI 5 mM glucose + 10% FBS, 5.12 µM
[21] = RPMI 5 mM glucose + 10% FBS, 15.4 µM
[22] = RPMI 5 mM glucose + 10% FBS, 46.1 µM
[23] = RPMI 5 mM glucose + 10% dialyzed FBS, 0.000781 µM
[24] = RPMI 5 mM glucose + 10% dialyzed FBS, 0.00234 µM
[25] = RPMI 5 mM glucose + 10% dialyzed FBS, 0.00702 µM
[26] = RPMI 5 mM glucose + 10% dialyzed FBS, 0.0211 µM
[27] = RPMI 5 mM glucose + 10% dialyzed FBS, 0.0632 µM
[28] = RPMI 5 mM glucose + 10% dialyzed FBS, 0.19 µM
[29] = RPMI 5 mM glucose + 10% dialyzed FBS, 0.569 µM
[30] = RPMI 5 mM glucose + 10% dialyzed FBS, 1.71 µM
[31] = RPMI 5 mM glucose + 10% dialyzed FBS, 5.12 µM
[32] = RPMI 5 mM glucose + 10% dialyzed FBS, 15.4 µM
[33] = RPMI 5 mM glucose + 10% dialyzed FBS, 46.1 µM

Row | Structure (SMILES) | cell viability [1] [%] | cell viability [2] [%] | cell viability [3] [%] | cell viability [4] [%] | cell viability [5] [%] | cell viability [6] [%] | cell viability [7] [%] | cell viability [8] [%] | cell viability [9] [%] | cell viability [10] [%] | cell viability [11] [%] | cell viability [12] [%] | cell viability [13] [%] | cell viability [14] [%] | cell viability [15] [%] | cell viability [16] [%] | cell viability [17] [%] | cell viability [18] [%] | cell viability [19] [%] | cell viability [20] [%] | cell viability [21] [%] | cell viability [22] [%] | cell viability [23] [%] | cell viability [24] [%] | cell viability [25] [%] | cell viability [26] [%] | cell viability [27] [%] | cell viability [28] [%] | cell viability [29] [%] | cell viability [30] [%] | cell viability [31] [%] | cell viability [32] [%] | cell viability [33] [%]
1 | [NH2][Pt]([NH2])([Cl])[Cl] | 99.2 | 105 | 95.1 | 90.3 | 102 | 96 | 97.6 | 98.2 | 101 | 98.2 | 105 | 86.2 | 92.8 | 95.6 | 98 | 101 | 101 | 90.7 | 94.3 | 89 | 90.8 | 95.5 | 88.4 | 94.6 | 85.2 | 92 | 91.1 | 95.6 | 92.2 | 87.6 | 98.8 | 88.4 | 85.2
2 | C[N+]1(C)[C@@H]2C[C@@H](OC(=O)[C@H](CO)c3ccccc3)C[C@H]1[C@@H]1O[C@@H]12.[Br-] | 88.6 | 94.2 | 94.3 | 102 | 104 | 104 | 96.9 | 90.8 | 100 | 106 | 102 | 95 | 103 | 105 | 99.1 | 108 | 99.2 | 101 | 98.7 | 97.8 | 122 | 110 | 82.4 | 47.6 | 90.7 | 90.7 | 97.8 | 99.5 | 101 | 89.9 | 91.2 | 99.6 | 103
3 | C=CC1=C(C(=O)O)N2C(=O)[C@@H](NC(=O)/C(=N\O)c3csc(N)n3)[C@H]2SC1 | 100 | 115 | 79.3 | 116 | 131 | 122 | 121 | 117 | 125 | 35.2 | 123 | 101 | 112 | 66.1 | 116 | 117 | 123 | 124 | 115 | 119 | 124 | 109 | 99.2 | 118 | 75.5 | 112 | 124 | 117 | 117 | 129 | 115 | 123 | 125
4 | CCOc1cc(N)c(Cl)cc1C(=O)NCC1CN(Cc2ccc(F)cc2)CCO1 (stereo not drawn) | 104 | 110 | 106 | 110 | 110 | 111 | 109 | 100 | 119 | 112 | 109 | 107 | 116 | 106 | 112 | 109 | 115 | 115 | 115 | 115 | 119 | 112 | 99.3 | 106 | 106 | 102 | 108 | 117 | 107 | 112 | 106 | 105 | 104
5 | CC\1=C(C(=O)N(\C=C1)C2=CC=C(C=C2)C3=NC=CO3)/C4=CC5=CN=C(N)N=C5C=C4 | 105 | 114 | 111 | 108 | 115 | 111 | 109 | 117 | 105 | 110 | 91.3 | 106 | 112 | 108 | 102 | 112 | 105 | 109 | 102 | 106 | 98.6 | 80.2 | 102 | 103 | 111 | 112 | 117 | 109 | 111 | 110 | 94.2 | 105 | 79.6
6 | N=C(N)NC(=O)c1nc(Cl)c(N)nc1N | 106 | 116 | 114 | 127 | 120 | 116 | 130 | 120 | 59.8 | 16.9 | 9.59 | – | – | – | – | – | – | – | – | – | – | – | 104 | 114 | 115 | 124 | 115 | 126 | 130 | 128 | 116 | 56.1 | 17.5
7 | CCN(CC)CCCCNc1nc2cc(Cl)c(Cl)cc2nc1-c1ccc(-c2cccs2)s1 | 94.2 | 114 | 75.6 | 114 | 109 | 134 | 118 | 121 | 115 | 123 | 59.9 | 99.9 | 119 | 64.8 | 123 | 120 | 125 | 134 | 125 | 123 | 114 | 5.94 | 107 | 116 | 78 | 118 | 120 | 129 | 123 | 127 | 121 | 108 | 6.07
8 | CN(C)C(=O)c1ccc([S+](=O)([O-])c2ccc(NC(=O)[C@@](C)(O)C(F)(F)F)c(Cl)c2)cc1 | 105 | 111 | 107 | 113 | 116 | 117 | 114 | 117 | 100 | 100 | 43.3 | 98 | 98.1 | 107 | 108 | 115 | 110 | 97.9 | 101 | 93.9 | 80.9 | 62.6 | 106 | 110 | 102 | 118 | 114 | 117 | 118 | 106 | 103 | 72.5 | 63.5
